We go through 10 compounds from US8906908B2, “Hydroxybupropion analogues for treating drug dependence” (priority 2010, dated 2014).

Where two headings read alike, the source gives them in different places.

The target of assay [1] is T1, 5HT transporters [(h)SERT] (Homo sapiens, UniProt P31645).
T1 construct: expressed in transfected cells; host or cells: HEK-293
Put plainly: Inhibition of [3H]serotonin uptake into HEK293 cells stably expressing hSERT. It is filed as cell-based. From the text:
(§1) Cell Lines and Culture: Human embryonic kidney (HEK-293) cells stably expressing human DAT, NET or SERT were maintained as previously described in Eshleman, A. J.; Carmolli, M.; Cumbay, M.; Martens, C. R.; Neve, K. A.; Janowsky, A., J. Pharmacol. Exp. Ther. 1999, 289, (2), 877-885. Use was made of several human cell lines that naturally or heterologously express specific, functional, human nAChR subtypes. Cells of the TE671/RD line naturally expresses muscle-type nAChR (a1β1γδ- or α1*-nAChR), and SH-SY5Y neuroblastoma cells naturally expresses autonomic α3β4*-nAChRs (containing α3, β4, probably α5, and sometimes β2 subunits). Different clones of SH-EP1 epithelial cell lines have been engineered to heterologously express either α4β2-nAChR, which are thought to be the most abundant, high affinity nicotine-binding nAChR in mammalian brain, or α4β4-nAChR, another possible brain nAChR subtype (SH-EP1-hα4β2 or α4β4 cells, respectively). These cells were maintained as low passage number (1-26 from our frozen stocks) cultures to ensure stable expression of native or heterologously-expressed nAChR as previously described (see Lukas, R. J.; Fryer, J. D.; Eaton, J. B.; L., G. C., Some methods for studies of nicotinic acetylcholine receptor pharmacology, in Nicotinic receptors and the Nervous System, Levine, E. D., Ed. CRC Press: Boca Raton, 2002; pp 3-27, incorporated herein by reference in its entirety). Cells were passaged once weekly by splitting just-confluent cultures 1/300 (TE671/RD), 1/5 (SH-SY5Y), or 1/20 (transfected SH-EP1) in serum-supplemented medium to maintain log-phase growth.
(§2) See, for example, Damaj, M. I.; Carroll, F. I.; Eaton, J. B.; Navarro, H. A.; Blough, B. E.; Mirza, S.; Lukas, R. J.; Martin, B. R., Mol. Pharmacol. 2004, 66, (3), 675-682 and Eshleman, A. J.; Carmolli, M.; Cumbay, M.; Martens, C. R.; Neve, K. A.; Janowsky, A., J. Pharmacol. Exp. Ther. 1999, 289, (2), 877-885, both incorporated by reference herein in their entireties.

For assay [2], the target named is T2, α4β4-nAChR (Homo sapiens, UniProt P30926+P43681).
T2 construct: expressed in transfected cells; host or cells: SH-EP1 epithelial cells (SH-EP1-hα4β4)
T2 sequence (P43681 29-627 limits assumed): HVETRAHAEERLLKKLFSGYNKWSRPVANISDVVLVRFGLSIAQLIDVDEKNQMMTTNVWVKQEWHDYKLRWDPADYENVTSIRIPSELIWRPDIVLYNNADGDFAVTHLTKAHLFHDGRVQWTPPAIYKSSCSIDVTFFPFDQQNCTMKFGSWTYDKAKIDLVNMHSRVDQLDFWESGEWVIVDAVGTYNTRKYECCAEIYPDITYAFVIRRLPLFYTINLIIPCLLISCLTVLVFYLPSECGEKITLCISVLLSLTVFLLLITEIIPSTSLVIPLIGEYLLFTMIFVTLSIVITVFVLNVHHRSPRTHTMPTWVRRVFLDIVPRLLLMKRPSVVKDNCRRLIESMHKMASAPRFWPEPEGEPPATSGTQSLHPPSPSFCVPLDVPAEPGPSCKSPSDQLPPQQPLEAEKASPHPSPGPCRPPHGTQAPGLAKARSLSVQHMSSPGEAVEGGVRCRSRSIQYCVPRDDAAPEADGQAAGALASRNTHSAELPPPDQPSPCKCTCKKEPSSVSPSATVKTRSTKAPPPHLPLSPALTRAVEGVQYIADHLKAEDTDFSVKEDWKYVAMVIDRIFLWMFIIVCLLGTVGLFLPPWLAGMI
T2 sequence (P30926 22-498): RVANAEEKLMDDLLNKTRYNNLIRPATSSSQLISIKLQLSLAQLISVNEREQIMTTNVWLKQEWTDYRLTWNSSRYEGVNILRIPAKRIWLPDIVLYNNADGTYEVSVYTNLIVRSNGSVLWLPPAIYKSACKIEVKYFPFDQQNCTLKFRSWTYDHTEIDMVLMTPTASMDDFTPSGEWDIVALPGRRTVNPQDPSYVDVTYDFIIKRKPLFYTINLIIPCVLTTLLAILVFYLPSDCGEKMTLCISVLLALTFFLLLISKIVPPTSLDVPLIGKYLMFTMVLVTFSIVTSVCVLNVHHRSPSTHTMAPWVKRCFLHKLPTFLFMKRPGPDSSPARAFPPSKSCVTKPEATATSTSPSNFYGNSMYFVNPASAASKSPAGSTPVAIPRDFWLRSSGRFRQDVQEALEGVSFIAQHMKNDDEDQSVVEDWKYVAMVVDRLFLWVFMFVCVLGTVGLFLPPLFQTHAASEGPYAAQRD
Put plainly: 86Rb+ efflux nAChR functional assay, SH-EP1-hα4β4 cells. The settings on record: EC80-EC90 carbamylcholine, parentheses = S.E.M. as multiplication/division factor, read-out: nAChR inhibition IC50 α4β4. In kind it is cell-based.
Excerpt: as §1
After cells had adhered (generally overnight, but no sooner than 4 h later), the medium was removed and replaced with 250 μL per well of complete medium supplemented with ˜350,000 cpm of ^86Rb^+ (PerkinElmer Life and Analytical Sciences, Boston, Mass.) and counted at 40% efficiency using Cerenkov counting (TriCarb 1900 liquid scintillation analyzer[…]; PerkinElmer Life Sciences).
After at least 4 h and typically overnight, ^86Rb^+ efflux was measured using the “flip-plate” technique. See Lukas, R. J.; Fryer, J. D.; Eaton, J. B.; L., G. C., Some methods for studies of nicotinic acetylcholine receptor pharmacology, in Nicotinic receptors and the Nervous System, Levine, E. D., Ed. CRC Press: Boca Raton, 2002; pp 3-27, incorporated herein by reference in its entirety). Briefly, after aspiration of the bulk of ^86Rb^+ loading medium from each well of the “cell plate,” each well containing cells was rinsed 3× with 2 mL of fresh ^86Rb^+ efflux buffer (130 mM NaCl, 5.4 mM KCl, 2 mM CaCl2, 5 mM glucose, 50 mM HEPES, pH 7.4) to remove extracellular ^86Rb^+. Following removal of residual rinse buffer by aspiration, the flip-plate technique was used again to simultaneously introduce 1.5 mL of fresh efflux buffer containing drugs of choice at indicated final concentrations from a 24-well “efflux/drug plate” into the wells of the cell plate. After a 5 min incubation, the solution was “flipped” back into the efflux/drug plate, and any remaining buffer in the cell plate was removed by aspiration. Cells remaining in the cell plate were lysed and suspended by addition of 1.5 mL of 0.1 M NaOH, 0.1% sodium dodecyl sulfate to each well.
Similarly, the sum of ^86Rb^+ in cell plates and efflux/drug plates also determined the efficiency of ^86Rb^+ loading (the percentage of applied ^86Rb^+ actually loaded into cells).
Specific efflux was then taken as the difference in control samples between total and non-specific ^86Rb^+ efflux. Any intrinsic agonist activity of test drugs was ascertained using samples containing test drug only at different concentrations and was normalized, after subtraction of non-specific efflux, to specific efflux in test drug-free, control samples.

Assay [3] has as its system Male Institute of Cancer Research (ICR) mice. Put plainly: Body temperature, antagonism of nicotine-induced hypothermia. In kind it is in vivo. The following applies: pretreatment 15 min before nicotine 2.5 mg/kg s.c., tested 30 min after nicotine; for ED50: Mus musculus, 0.5 h, read-out: AD50 Hypothermia. How it is done: (§3) Animals: Male Institute of Cancer Research (ICR) mice (weighing 20-25 g) obtained from Harlan (Indianapolis, Ind.) were used throughout the study. Animals were housed in an Association for Assessment and Accreditation of Laboratory Animal Care-approved facility, were placed in groups of six, and had free access to food and water. Studies were approved by the Institutional Animal Care and Use Committee of Virginia Commonwealth University.
Body Temperature: Rectal temperature was measured by a thermistor probe (inserted 24 mm) and digital thermometer (YSI Inc., Yellow Springs, Ohio). Readings were taken just before and 30 min after subcutaneous injection of either saline or 2.5 mg/kg nicotine. The difference in rectal temperature before and after treatment was calculated for each mouse. The ambient temperature of the laboratory varied from 21 to 24° C. from day to day. […] The animals were then tested 30 min after administration of a subcutaneous dose of 2.5 mg/kg nicotine.

The test system is the same in assay [4]. Put plainly: Locomotor activity, antagonism of nicotine effect. The following applies: for AD50 Locomotion: pretreatment 15 min before nicotine […] s.c. In kind it is in vivo.
Excerpt: as §3
Locomotor Activity: Mice were placed into individual Omnitech photocell activity cages (28×16.5 cm; Omnitech Electronics, Columbus, Ohio) 5 min after subcutaneous administration of either 0.9% saline or nicotine (1.5 mg/kg). Interruptions of the photocell beams (two banks of eight cells each) were then recorded for the next 10 min. Data were expressed as the number of photocell interruptions.

For assay [5], the target named is T3, NE transporters [h(NET)] (Homo sapiens, UniProt P23975).
T3 construct: expressed in transfected cells; host or cells: HEK-293
T3 sequence (P23975 whole entry): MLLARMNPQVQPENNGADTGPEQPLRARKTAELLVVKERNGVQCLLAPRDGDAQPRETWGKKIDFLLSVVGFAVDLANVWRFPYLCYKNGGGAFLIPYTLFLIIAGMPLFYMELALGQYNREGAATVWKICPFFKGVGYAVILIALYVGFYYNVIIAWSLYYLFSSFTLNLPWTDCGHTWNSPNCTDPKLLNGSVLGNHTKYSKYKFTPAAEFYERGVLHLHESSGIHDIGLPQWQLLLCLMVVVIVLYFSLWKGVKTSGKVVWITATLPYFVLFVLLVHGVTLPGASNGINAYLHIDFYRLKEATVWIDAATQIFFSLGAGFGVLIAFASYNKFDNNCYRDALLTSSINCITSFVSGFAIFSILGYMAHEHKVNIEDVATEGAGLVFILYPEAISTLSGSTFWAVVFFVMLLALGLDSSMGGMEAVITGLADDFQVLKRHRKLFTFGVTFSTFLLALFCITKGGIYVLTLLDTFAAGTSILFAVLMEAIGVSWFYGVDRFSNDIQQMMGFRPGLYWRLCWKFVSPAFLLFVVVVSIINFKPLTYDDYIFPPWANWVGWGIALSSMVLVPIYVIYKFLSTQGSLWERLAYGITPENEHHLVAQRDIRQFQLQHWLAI
Put plainly: Inhibition of [3H]norepinephrine uptake into HEK293 cells stably expressing hNET. In kind it is cell-based. The settings on record: for selectivity for inhibition of NE over DA uptake: ratio of uptake IC50 values.
Excerpt: as §1, §2

[6] abbreviates: HEK293-hSERT, mean ± standard error of three independent experiments, read-out: monoamine uptake inhibition IC50 [3H]5HT.
Setting [7] is: HEK293-hNET, mean ± standard error of three independent experiments, read-out: monoamine uptake inhibition IC50 [3H]NE.
[8] abbreviates: read-out: monoamine uptake inhibition IC50 [3H]5HT.

T1 sequence (P31645 whole entry): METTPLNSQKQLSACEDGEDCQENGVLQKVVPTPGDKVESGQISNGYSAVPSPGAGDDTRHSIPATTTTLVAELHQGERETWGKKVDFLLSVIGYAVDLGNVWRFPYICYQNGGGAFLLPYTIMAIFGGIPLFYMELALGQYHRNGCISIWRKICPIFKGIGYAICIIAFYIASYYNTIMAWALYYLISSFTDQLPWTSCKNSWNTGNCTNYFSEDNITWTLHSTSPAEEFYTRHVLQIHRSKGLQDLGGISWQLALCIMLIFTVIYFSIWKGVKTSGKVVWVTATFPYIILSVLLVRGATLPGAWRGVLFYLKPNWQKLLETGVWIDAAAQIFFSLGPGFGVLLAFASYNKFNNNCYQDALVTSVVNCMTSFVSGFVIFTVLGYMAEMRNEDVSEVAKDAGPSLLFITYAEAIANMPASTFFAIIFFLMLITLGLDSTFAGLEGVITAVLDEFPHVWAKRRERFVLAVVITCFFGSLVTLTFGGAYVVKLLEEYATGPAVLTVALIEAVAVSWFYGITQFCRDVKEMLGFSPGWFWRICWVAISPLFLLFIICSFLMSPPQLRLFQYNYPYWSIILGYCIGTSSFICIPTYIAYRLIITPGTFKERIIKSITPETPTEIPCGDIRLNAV

For the compound `C[C@@H]1N(C)C(C)(C)CO[C@@]1(O)c1cccc(Cl)c1` [Compound 4u, (2S,3S)-2-(3-Chlorophenyl)-3,4,5,5-tetramethylmorpholin-2-ol], the results for the IC50 in assay [1] (setting [6]), in assay [2] and in assay [5] (setting [7]) were more than 10000 nM, 43000 nM and 415 ± 9 nM, respectively. For the same compound, in assay [3], the “AD50 Hypothermia” value is given as “IA (IA: AD50 > 15 mg/kg)”. Besides, the “AD50 Locomotion” value in assay [4] is “IA (IA: AD50 > 15 mg/kg)”.

Turning to `C[C@@H]1NC(C)(C)CO[C@@]1(O)c1cccc(F)c1` [Compound 4c, (2S,3S)-2-(3-Fluorophenyl)-3,5,5-trimethylmorpholin-2-ol], the IC50 – broadly, the concentration needed to halve the response being measured – in assay [1] is more than 10000 nM; in assay [2], more than 100000 nM; in assay [5] (setting [7]), 740 ± 150 nM. The ED50 in assay [3] was 2.3 to 7 mg/kg. Moreover, the “AD50 Locomotion” value in assay [4] is “IA (IA: AD50 > 15 mg/kg)”.

As for `C[C@@H]1NC(C)(C)CO[C@@]1(O)c1cccc(Br)c1` [Compound 4d, (2S,3S)-2-(3-Bromophenyl)-3,5,5-trimethylmorpholin-2-ol], the figures for the IC50 in assay [1], in assay [2] and in assay [5] (setting [7]) were more than 10000 nM, 30000 nM and 920 ± 300 nM, respectively. In addition, the ED50 is 1.7 mg/kg in assay [3] and 2.6 mg/kg in assay [4] (Mus musculus, pretreatment 15 min before nicotine 1.5 mg/kg s.c., read-out: AD50 Locomotion). In assay [4], the “AD50 Locomotion” value came to 2.6 mg/kg. For the same compound, the “selectivity for inhibition of NE over DA uptake” value in assay [5] is listed as approximately 3.6 fold.

On to `Cc1cccc([C@]2(O)OCC(C)(C)N[C@H]2C)c1` [Compound 4e, (2S,3S)-2-(m-Tolyl)-3,5,5-trimethylmorpholin-2-ol], for which the IC50 in assay [1] (setting [6]) was more than 10000 nM; in assay [2], 64000 nM; in assay [5] (setting [7]), 1130 ± 20 nM. In addition, the ED50 in assay [3] lay within 2.3 to 7 mg/kg. In addition, the “AD50 Locomotion” value in assay [4] is listed as “IA (IA: AD50 > 15 mg/kg)”.

With `CC1NC(C)(C)COC1(O)c1ccc(Cl)c(Cl)c1` (racemic) [Compound 4n, 2-(3,4-Dichlorophenyl)-3,5,5-trimethylmorpholin-2-ol], the IC50 came to 360 nM in assay [1], 14000 nM in assay [2] and 114 nM in assay [5]. The “AD50 Hypothermia” value in assay [3] was “IA (IA: AD50 > 15 mg/kg)”. Moreover, the “AD50 Locomotion” value in assay [4] is recorded as “IA (IA: AD50 > 15 mg/kg)”. Further, the “selectivity for inhibition of NE uptake over α3β4*-nAChR function” value in assay [5] is listed as approximately 23 fold.

As for `C[C@@H]1NC(C)(C)CO[C@@]1(O)c1ccc2ccccc2c1` [Compound 4r, (2S,3S)-2-(Naphthalen-2-yl)-3,5,5-trimethylmorpholin-2-ol], the IC50 was 334 ± 42 nM in assay [1] (setting [8]), 11000 nM in assay [2] and 1570 ± 430 nM in assay [5] (setting [7]). For the same compound, the “AD50 Hypothermia” value in assay [3] is reported as “IA (IA: AD50 > 15 mg/kg)”. Moreover, the “AD50 Locomotion” value in assay [4] is “IA (IA: AD50 > 15 mg/kg)”. For the same compound, the “selectivity for inhibition of NE uptake over α3β4*-nAChR function” value in assay [5] is given as 1.3 fold. For the same compound, in assay [5], the “selectivity for inhibition of NE uptake over α4β2-nAChR function” value was approximately 4 fold.

As for `COc1cccc([C@]2(O)OCC(C)(C)N[C@H]2C)c1` [Compound 4f, (2S,3S)-2-(3-Methoxyphenyl)-3,5,5-trimethylmorpholin-2-ol], the results for the IC50 in assay [1] (setting [6]), in assay [2] and in assay [5] (setting [7]) were more than 10000 nM, more than 100000 nM and 3000 ± 900 nM, respectively. For the same compound, in assay [3], the “AD50 Hypothermia” value is on record as “IA (IA: AD50 > 15 mg/kg)”. Moreover, in assay [4], the “AD50 Locomotion” value was “IA (IA: AD50 > 15 mg/kg)”. Also, the “selectivity for inhibition of NE over DA uptake” value in assay [5] was 5 fold.

Take `C[C@@H]1NC(C)(C)CO[C@@]1(O)c1ccc(F)c(F)c1` [Compound 4m, (2S,3S)-2-(3,4-Difluorophenyl)-3,5,5-trimethylmorpholin-2-ol]: the IC50 in assay [1] (setting [6]) was more than 10000 nM; in assay [2], more than 100000 nM; in assay [5] (setting [7]), 740 ± 110 nM. Further, the “AD50 Hypothermia” value in assay [3] was “IA (IA: AD50 > 15 mg/kg)”. The “AD50 Locomotion” value in assay [4] is on record as “IA (IA: AD50 > 15 mg/kg)”.

In the case of `C[C@@H]1NC(C)(C)CO[C@@]1(O)c1ccccc1` [Compound 4b, (2S,3S)-2-Phenyl-3,5,5-trimethylmorpholin-2-ol], the IC50 in assay [1] (setting [6]) was more than 10000 nM; in assay [2], 92000 nM; in assay [5] (setting [7]), 550 ± 90 nM. Besides, the “AD50 Hypothermia” value in assay [3] is “IA (IA: AD50 > 15 mg/kg)”. In assay [4], the “AD50 Locomotion” value is on record as “IA (IA: AD50 > 15 mg/kg)”.

Regarding `C[C@@H]1NC(C)(C)CO[C@@]1(O)c1cccc2ccccc12` [Compound 4q, (2S,3S)-2-(Naphthalen-1-yl)-3,5,5-trimethylmorpholin-2-ol], the IC50 in assay [1] (setting [8]) was 1560 ± 215 nM; in assay [2], 13000 nM; in assay [5] (setting [7]), 411 ± 53 nM. Also, the “AD50 Hypothermia” value in assay [3] is given as “IA (IA: AD50 > 15 mg/kg)”. Besides, the “AD50 Locomotion” value in assay [4] is recorded as “IA (IA: AD50 > 15 mg/kg)”. Besides, the “selectivity for inhibition of NE over DA uptake” value in assay [5] came out at 24 fold.
